Calls of active or inactive are those of the source.
Key:
[1] = human group III sPLA2 inhibitors, dose response, biochemical, QFRET, IC50 (AID 743457);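 note: green fluorescence rise as the enzyme cleaves BODIPY PC-A2 in liposomes; potency for inhibition of the enzyme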
[2] = molecular target: Induced myeloid leukemia cell differentiation protein Mcl-1 (Homo sapiens, UniProt Q07820); assay type: functional
Vero = assay: cells; assay type: functional; settings: Chlorocebus sabaeus
[3] = microbe, parasite or virus in culture; assay type: functional; settings: Mycobacterium tuberculosis
[4] = molecular target: T1, Short transient receptor potential channel 4 (Mus musculus, UniProt Q9QUQ5); assay: mouse TRPC4 channel activators, dose response, cell-based, HEK293 TRPC4/mu-opioid, Fluo-4 calcium (AID 434937); assay type: functional
T1 sequence (Q9QUQ5 whole entry): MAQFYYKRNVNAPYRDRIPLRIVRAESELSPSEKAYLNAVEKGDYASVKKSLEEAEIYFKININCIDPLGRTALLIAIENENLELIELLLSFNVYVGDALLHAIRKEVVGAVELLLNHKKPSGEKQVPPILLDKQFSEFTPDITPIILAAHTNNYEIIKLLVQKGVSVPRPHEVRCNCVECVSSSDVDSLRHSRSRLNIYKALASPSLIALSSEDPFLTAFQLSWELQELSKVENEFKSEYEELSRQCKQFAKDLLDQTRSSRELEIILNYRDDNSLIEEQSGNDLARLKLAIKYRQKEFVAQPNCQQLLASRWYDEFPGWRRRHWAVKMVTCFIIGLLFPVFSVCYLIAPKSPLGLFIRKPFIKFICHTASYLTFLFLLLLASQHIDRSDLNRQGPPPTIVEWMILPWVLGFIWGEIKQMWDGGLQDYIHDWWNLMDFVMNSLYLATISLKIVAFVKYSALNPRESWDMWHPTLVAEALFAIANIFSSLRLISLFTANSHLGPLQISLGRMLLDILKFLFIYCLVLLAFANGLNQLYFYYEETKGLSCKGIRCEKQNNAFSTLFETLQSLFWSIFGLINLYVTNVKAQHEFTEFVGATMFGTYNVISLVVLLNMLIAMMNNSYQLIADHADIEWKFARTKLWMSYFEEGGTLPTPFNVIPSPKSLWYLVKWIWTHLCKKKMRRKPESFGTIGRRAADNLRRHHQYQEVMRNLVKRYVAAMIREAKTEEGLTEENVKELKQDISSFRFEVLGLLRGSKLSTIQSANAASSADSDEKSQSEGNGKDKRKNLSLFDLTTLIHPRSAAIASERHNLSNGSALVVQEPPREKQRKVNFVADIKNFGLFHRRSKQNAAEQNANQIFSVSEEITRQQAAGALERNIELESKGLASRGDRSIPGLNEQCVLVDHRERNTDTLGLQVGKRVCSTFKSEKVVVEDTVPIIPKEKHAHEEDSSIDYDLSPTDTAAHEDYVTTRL

[5] = molecular target: T2, High affinity choline transporter 1 (Homo sapiens, UniProt Q9GZV3); assay: CHT inhibitors, dose response, cell-based, 5-point CRC, membrane potential dye (AID 504840); assay type: functional
T2 sequence (Q9GZV3 whole entry): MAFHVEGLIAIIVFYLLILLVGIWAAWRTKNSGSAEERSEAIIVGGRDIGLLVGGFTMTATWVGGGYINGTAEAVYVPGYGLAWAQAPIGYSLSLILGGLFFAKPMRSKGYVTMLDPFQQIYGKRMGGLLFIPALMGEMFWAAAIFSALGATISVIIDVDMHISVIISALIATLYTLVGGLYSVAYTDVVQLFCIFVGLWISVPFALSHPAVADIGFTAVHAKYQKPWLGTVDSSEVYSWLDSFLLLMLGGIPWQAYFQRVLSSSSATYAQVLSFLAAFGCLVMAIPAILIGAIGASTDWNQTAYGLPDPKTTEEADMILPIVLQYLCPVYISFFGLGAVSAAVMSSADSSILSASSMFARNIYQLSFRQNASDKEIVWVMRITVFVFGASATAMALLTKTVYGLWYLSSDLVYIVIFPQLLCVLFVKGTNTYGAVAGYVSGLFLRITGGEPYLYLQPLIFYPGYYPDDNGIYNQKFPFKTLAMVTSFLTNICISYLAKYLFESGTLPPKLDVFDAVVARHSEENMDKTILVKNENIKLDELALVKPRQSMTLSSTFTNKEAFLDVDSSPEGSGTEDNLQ

Beta-galactosidase = Beta-galactosidase (Escherichia coli, UniProt Q8VNN2); assay: Dose response counterscreen for EBI2 assay utilizing the enzyme, b-galactosidase.; assay type: functional
[6] = Luminescence Cell-Based Dose Response HTS to Identify Activators of Luciferase Translation or Activity in H4 […] Cells. [Related pubchem assays: 1829 (Project Summary), 1814 (Primary HTS)]; assay type: functional
Protein skinhead-1 = molecular target: T3, Protein skinhead-1 (Caenorhabditis elegans, UniProt P34707); assay type: functional
T3 sequence (P34707 whole entry): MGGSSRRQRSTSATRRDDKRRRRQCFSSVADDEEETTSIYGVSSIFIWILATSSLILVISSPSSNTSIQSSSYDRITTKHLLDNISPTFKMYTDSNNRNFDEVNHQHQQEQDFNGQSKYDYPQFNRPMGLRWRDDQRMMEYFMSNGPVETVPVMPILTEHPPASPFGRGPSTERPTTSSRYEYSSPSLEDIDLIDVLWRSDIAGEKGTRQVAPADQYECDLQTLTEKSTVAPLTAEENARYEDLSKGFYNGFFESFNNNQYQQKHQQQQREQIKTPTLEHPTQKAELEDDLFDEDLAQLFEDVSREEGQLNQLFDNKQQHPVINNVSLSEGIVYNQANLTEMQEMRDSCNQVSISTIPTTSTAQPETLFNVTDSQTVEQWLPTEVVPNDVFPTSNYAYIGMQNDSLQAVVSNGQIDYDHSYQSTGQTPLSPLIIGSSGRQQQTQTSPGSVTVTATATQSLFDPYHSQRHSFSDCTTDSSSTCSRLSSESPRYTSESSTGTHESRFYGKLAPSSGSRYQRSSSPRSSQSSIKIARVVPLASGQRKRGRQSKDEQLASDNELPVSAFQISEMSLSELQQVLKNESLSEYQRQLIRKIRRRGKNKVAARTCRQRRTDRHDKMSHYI

[7] = Luminescence Cell-Based Dose Confirmation HTS to Identify Activators of 5'UTR Stem-Loop Driven Alpha-Synuclein mRNA Translation in H4 Neuroglioblastoma Cells. [Related pubchem assays: 1829 (Project Summary), 1814 (Primary HTS)]; assay type: functional
[8] = molecular target: T4, Nuclear receptor subfamily 0 group B member 1 (Homo sapiens, UniProt P51843); assay type: functional, cell-based;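 note: HEK293T cells transfected with SF-1 and DAX-1 plus StAR promoter luciferase reporter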
T4 sequence (P51843 whole entry): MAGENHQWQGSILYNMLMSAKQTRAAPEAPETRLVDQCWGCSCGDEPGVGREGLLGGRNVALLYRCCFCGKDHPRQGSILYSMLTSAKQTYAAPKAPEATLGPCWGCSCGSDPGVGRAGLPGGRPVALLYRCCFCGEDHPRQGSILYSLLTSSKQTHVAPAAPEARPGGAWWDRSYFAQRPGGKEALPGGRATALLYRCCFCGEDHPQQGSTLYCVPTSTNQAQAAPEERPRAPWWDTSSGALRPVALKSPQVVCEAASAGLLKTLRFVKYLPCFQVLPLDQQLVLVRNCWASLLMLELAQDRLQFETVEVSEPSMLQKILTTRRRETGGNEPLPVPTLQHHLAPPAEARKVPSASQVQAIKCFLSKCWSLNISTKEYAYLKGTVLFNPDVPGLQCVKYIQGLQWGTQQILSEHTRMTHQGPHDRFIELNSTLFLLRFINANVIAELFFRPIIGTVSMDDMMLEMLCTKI

cells [9] = assay type: functional, cell-based
H4 = assay: Luminescence Cell-Based Dose Response HTS to Identify Activators of 5'UTR Stem-Loop Driven Prion Protein mRNA Translation in H4 Neuroglioblastoma Cells. [Related pubchem assays: 1829 (Project Summary), 1814 (Primary HTS)]; assay type: functional; settings: Homo sapiens
[10] = HepG2 cell cytotoxicity, dose response, cytotoxicity control, plate reader, cherry-pick, antagonist series (AID 743416); assay type: functional, cell-based
[11] = MC4R antagonists, dose response, counter-screen for LGR2 antagonist project, cell-based, plate reader, cherry pick (AID 743444); assay type: functional;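 note: transfected HEK 293 cells stimulated with alpha-MSH peptide; potency of inhibitors of the alpha-MSH evoked signal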
[12] = A549 cell cytotoxicity, dose response, cytotoxicity control, plate reader, cherry-pick, antagonist series (AID 743412); assay type: functional, cell-based
[13] = LGR2 antagonists, dose response, cell-based, HEK293, CRE-luciferase reporter, cherry pick, set 2 (AID 743343); assay type: functional;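 note: transfected cells were stimulated with diluted bursicon conditioned medium after compound addition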
Galanin receptor type 3 = molecular target: T5, Galanin receptor type 3 (Homo sapiens, UniProt O60755); assay: Fluorescence-based cell-based primary high throughput dose response assay to identify antagonists of the Galanin Receptor 3 (GalR3).; assay type: functional
T5 sequence (O60755 whole entry): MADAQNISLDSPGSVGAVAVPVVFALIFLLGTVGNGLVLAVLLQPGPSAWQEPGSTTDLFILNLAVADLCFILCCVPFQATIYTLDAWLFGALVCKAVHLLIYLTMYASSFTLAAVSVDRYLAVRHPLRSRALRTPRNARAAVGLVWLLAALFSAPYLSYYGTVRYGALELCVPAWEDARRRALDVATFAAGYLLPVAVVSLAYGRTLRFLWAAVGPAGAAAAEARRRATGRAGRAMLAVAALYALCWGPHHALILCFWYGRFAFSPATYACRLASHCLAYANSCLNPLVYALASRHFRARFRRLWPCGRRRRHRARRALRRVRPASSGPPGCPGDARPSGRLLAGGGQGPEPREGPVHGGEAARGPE

cells [14] = assay type: functional, cell-based; settings: HEK-CNG
[15] = molecular target: T6, Heat shock factor protein 1 (Mus musculus, UniProt P38532); assay: HSF1 potentiators in luciferase reporter cells, confirmation, cell-based, NIH3T3, luminescence, dose retest (AID 435004); assay type: functional;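 note: stress induced by proteasome inhibitor MG132 added 30 min after compound; luciferase reporter driven by HSF1 response element in NIH3T3 cells; actives raise luminescence as potentiators of the MG132 stress response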
T6 sequence (P38532 whole entry): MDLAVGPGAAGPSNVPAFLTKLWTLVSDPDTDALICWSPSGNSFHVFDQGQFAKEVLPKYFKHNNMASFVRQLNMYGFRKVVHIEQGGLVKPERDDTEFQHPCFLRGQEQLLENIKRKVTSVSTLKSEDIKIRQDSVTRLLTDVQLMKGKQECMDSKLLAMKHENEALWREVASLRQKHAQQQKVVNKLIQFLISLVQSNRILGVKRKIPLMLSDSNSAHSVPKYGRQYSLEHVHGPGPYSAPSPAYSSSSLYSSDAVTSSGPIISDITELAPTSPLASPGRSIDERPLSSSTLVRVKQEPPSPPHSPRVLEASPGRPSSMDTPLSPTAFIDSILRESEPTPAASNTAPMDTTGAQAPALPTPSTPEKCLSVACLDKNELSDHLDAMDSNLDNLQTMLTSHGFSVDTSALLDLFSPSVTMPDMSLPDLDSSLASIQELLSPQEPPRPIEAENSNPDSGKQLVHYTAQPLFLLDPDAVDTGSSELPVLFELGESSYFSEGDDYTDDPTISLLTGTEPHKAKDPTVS

[16] = THP-1 cell cytotoxicity, dose response, cytotoxicity control for Vif-APOBEC3G degradation inhibitor project, THP-1 cells (AID 1117359); assay type: functional; settings: Human immunodeficiency virus 1, THP-1
[17] = molecular target: T7, Rac GTPase-activating protein 1 (Homo sapiens, UniProt Q9H0H5); assay: MgcRacGAP GTPase-activating activity inhibitors, confirmation, biochemical, ADP Hunter fluorescence, primary and confirmatory (AID 624330); assay type: functional
T7 sequence (Q9H0H5 whole entry): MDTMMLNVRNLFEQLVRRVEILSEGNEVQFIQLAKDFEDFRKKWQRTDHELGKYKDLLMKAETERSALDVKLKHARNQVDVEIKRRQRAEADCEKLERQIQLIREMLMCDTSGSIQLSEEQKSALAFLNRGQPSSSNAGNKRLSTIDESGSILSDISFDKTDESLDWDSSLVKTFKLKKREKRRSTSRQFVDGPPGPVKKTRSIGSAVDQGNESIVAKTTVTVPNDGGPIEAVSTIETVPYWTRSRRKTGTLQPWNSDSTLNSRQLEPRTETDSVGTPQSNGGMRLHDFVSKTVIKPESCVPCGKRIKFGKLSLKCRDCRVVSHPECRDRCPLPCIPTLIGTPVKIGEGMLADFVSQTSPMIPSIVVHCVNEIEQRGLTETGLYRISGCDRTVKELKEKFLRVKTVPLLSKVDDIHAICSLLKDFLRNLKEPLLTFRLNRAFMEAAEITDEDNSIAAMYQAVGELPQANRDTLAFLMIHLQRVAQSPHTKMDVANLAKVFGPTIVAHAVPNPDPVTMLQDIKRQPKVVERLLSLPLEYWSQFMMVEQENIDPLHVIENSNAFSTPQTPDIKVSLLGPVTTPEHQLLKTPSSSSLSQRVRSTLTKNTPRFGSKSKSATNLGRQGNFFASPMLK

[18] = HeLa cell cytotoxicity, dose response, cytotoxicity control for MgcRacGAP inhibitor project (AID 624300); assay type: functional

Chain of Beta-galactosidase (Q8VNN2 whole entry): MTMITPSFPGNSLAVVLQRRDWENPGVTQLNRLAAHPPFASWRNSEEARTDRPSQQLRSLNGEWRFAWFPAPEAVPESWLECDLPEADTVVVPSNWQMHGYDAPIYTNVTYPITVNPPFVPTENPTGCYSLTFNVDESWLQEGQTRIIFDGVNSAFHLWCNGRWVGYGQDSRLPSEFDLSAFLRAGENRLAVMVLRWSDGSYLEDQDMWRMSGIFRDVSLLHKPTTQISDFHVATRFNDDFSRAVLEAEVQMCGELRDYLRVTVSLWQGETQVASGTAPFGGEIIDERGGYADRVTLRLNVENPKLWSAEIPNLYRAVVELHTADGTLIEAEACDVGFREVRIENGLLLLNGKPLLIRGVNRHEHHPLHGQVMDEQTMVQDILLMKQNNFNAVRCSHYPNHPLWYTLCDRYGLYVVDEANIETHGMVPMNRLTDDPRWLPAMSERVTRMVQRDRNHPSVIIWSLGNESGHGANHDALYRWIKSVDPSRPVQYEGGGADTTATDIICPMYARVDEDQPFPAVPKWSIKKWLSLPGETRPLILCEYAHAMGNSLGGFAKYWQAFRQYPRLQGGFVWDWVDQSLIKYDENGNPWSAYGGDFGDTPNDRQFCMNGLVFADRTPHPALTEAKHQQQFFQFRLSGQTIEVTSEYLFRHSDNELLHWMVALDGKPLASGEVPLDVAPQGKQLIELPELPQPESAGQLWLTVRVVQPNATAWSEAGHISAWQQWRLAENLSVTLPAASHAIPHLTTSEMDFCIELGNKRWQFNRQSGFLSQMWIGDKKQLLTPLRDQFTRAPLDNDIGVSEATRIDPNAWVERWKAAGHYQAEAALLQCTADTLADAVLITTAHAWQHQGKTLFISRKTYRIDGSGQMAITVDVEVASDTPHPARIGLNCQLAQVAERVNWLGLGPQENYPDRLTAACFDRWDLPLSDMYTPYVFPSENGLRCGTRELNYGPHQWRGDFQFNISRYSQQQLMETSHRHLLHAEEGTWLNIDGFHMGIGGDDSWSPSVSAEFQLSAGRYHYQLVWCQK
Chain of Induced myeloid leukemia cell differentiation protein Mcl-1 (Q07820 whole entry): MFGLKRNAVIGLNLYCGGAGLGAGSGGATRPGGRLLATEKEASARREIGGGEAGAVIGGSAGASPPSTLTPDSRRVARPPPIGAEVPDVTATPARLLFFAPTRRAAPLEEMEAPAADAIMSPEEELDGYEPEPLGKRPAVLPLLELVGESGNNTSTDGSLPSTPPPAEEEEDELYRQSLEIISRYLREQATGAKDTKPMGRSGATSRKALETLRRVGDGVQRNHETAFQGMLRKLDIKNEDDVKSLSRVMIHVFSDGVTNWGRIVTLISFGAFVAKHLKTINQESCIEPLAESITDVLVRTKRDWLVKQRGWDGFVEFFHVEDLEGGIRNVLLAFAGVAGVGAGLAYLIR

CN(C)c1ccc(NC(=O)c2cccc(C(=O)Nc3ccc(N(C)C)cc3)n2)cc1
IC50 [1]: 40 µM (inactive) | IC50 [2]: 3.33 µM (active)

Cc1cccc(C(=O)NNC(=S)NC(=O)c2ccccc2)c1
CC50 (Vero): > 25 µM (active) | IC50 [1]: > 122 µM (inactive) | CC50 [3]: 24 µM (active) | EC50 [4]: 2.11 µM (active) | IC50 [5]: 7.59 µM (active)

C=CCc1cccc(CNc2nc3ccccc3n2CCN2CCOCC2)c1O
IC50 (Beta-galactosidase): > 80 µM (inactive)

O=C(c1cc(COc2ccc(F)cc2Cl)on1)N1C[C@H]2C[C@H]3C[C@@H](C2)C[C@H]1C3
EC50 [6]: 26.2 µM (active) | IC50 (Protein skinhead-1): > 100 µM (inactive) | EC50 [7]: 0.917 µM (active) | IC50 [8]: > 67.5 µM (inactive) | IC50 (cells [9]): > 67.5 µM (inactive) | EC50 (H4): 47.6 µM (active)

COc1ccc(C(=O)Nc2nnc(SCC(=O)NCc3ccco3)s2)c(OC)c1
AC50 [10]: > 52 µM (inactive) | AC50 [11]: 4.64 µM (active) | AC50 [12]: > 52 µM (inactive) | AC50 [13]: 6.14 µM (active) | IC50 [8]: > 67.5 µM (inactive) | IC50 (cells [9]): > 67.5 µM (inactive)

CC(C)NC(=O)NC(=O)COC(=O)Cc1c(F)cccc1Cl
IC50 (Galanin receptor type 3): > 29.9 µM (inactive) | EC50 (cells [14]): > 29.9 µM (inactive)

O=C(/C=C/c1ccc(OCCCF)cc1)N1CCN(Cc2ccccc2)CC1
IC50 (Beta-galactosidase): > 80 µM (inactive)

S=C(N/N=C/c1cccs1)NC1CC2CCC1C2 (stereo not given)
EC50 [15]: > 260 µM (inactive) | IC50 [1]: > 122 µM (inactive) | CC50 [16]: > 40 µM (active)

COc1ccc(-c2cc(NC=O)c3ncc(-c4cc(OC)c(OC)c(OC)c4)n3c2)cc1
IC50 [8]: > 67.6 µM (inactive) | IC50 (cells [9]): > 67.6 µM (inactive)

C/C(=N\Nc1ccc(S(=O)(=O)N2CCCCC2)cn1)c1ccc(O)cc1
IC50 [17]: 23.4 µM (active) | CC50 [18]: 100 µM (active)
